Results published in PubChem BioAssay AID1919016 (Molecular Pharmacology Branch, DTP, NCI, 2023).

Test system: NCI-H196 complex spheroid growth, percent test/control
Test: Anticancer human tumor NCI-H196 cell line growth inhibition [AhR];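 further: seven days of drug exposure starting three days after plating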;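 on viability, T/C: 100% = DMSO vehicle control wells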
Conditions: for IC50: curve of first compound; for viability, T/C: stronger effect = lower value
Method in brief: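 Complex tumor spheroids co-cultured with HUVEC and human MSC stroma; AhR antagonists tested in combination with standard-of-care and investigational agents. Top concentration at or near clinical Cmax (else 10 microM), half-log dilutions; growth expressed as percent test/control.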

[1] = second compound 0.1 µM, first compound 0.0316 µM
[2] = second compound 0.1 µM, first compound 0.1 µM
[3] = second compound 0.1 µM, first compound 0.316 µM
[4] = second compound 0.1 µM, first compound 1 µM
[5] = second compound 0.1 µM, first compound 3.16 µM
[6] = second compound 0.1 µM, first compound 10 µM
[7] = second compound 0.316 µM, first compound 0.0316 µM
[8] = second compound 0.316 µM, first compound 0.1 µM
[9] = second compound 0.316 µM, first compound 0.316 µM
[10] = second compound 0.316 µM, first compound 1 µM
[11] = second compound 0.316 µM, first compound 3.16 µM
[12] = second compound 0.316 µM, first compound 10 µM
[13] = second compound 1 µM, first compound 0.0316 µM
[14] = second compound 1 µM, first compound 0.1 µM
[15] = second compound 1 µM, first compound 0.316 µM
[16] = second compound 1 µM, first compound 1 µM
[17] = second compound 1 µM, first compound 3.16 µM
[18] = second compound 1 µM, first compound 10 µM
[19] = second compound 3.16 µM, first compound 0.0316 µM
[20] = second compound 3.16 µM, first compound 0.1 µM
[21] = second compound 3.16 µM, first compound 0.316 µM
[22] = second compound 3.16 µM, first compound 1 µM
[23] = second compound 3.16 µM, first compound 3.16 µM
[24] = second compound 3.16 µM, first compound 10 µM
[25] = second compound 10 µM, first compound 0.0316 µM
[26] = second compound 10 µM, first compound 0.1 µM
[27] = second compound 10 µM, first compound 0.316 µM
[28] = second compound 10 µM, first compound 1 µM
[29] = second compound 10 µM, first compound 3.16 µM
[30] = second compound 10 µM, first compound 10 µM
[31] = second compound 0.1 µM, first compound 0.00316 µM
[32] = second compound 0.1 µM, first compound 0.01 µM
[33] = second compound 0.316 µM, first compound 0.00316 µM
[34] = second compound 0.316 µM, first compound 0.01 µM
[35] = second compound 1 µM, first compound 0.00316 µM
[36] = second compound 1 µM, first compound 0.01 µM
[37] = second compound 3.16 µM, first compound 0.00316 µM
[38] = second compound 3.16 µM, first compound 0.01 µM
[39] = second compound 10 µM, first compound 0.00316 µM
[40] = second compound 10 µM, first compound 0.01 µM

Structure (SMILES) | IC50 (second compound 0.1 µM) [nM] | IC50 (second compound 0.316 µM) [nM] | IC50 (second compound 1 µM) [nM] | IC50 (second compound 3.16 µM) [nM] | IC50 (second compound 10 µM) [nM] | viability, T/C [1] [%] | viability, T/C [2] [%] | viability, T/C [3] [%] | viability, T/C [4] [%] | viability, T/C [7] [%] | viability, T/C [8] [%] | viability, T/C [9] [%] | viability, T/C [10] [%] | viability, T/C [13] [%] | viability, T/C [14] [%] | viability, T/C [15] [%] | viability, T/C [16] [%] | viability, T/C [19] [%] | viability, T/C [20] [%] | viability, T/C [21] [%] | further results
CC(C)c1c(-c2ccccc2)nc2c(C#N)c[nH]n2c1=O + CC(CO)NC(=O)c1cc(-c2ccc(Cl)cc2)nn(-c2cnn(C)c2)c1=O | > 10000 | > 10000 | > 10000 | > 10000 | > 10000 | 118 | 107 | 111 | 105 | 116 | 128 | 109 | 112 | 111 | 114 | 117 | 121 | 109 | 111 | 118 | viability, T/C [5]: 104%; viability, T/C [6]: 102%; viability, T/C [11]: 108%; viability, T/C [12]: 111%; viability, T/C [17]: 118%; viability, T/C [18]: 104%; viability, T/C [22]: 114%; viability, T/C [23]: 117%; viability, T/C [24]: 110%; viability, T/C [25]: 116%; viability, T/C [26]: 127%; viability, T/C [27]: 114%; viability, T/C [28]: 119%; viability, T/C [29]: 111%; viability, T/C [30]: 108%
CC1COCCN1c1cc(-c2ccnn2C)c2ccnc(-c3ccn[nH]3)c2n1 (stereo not given) + CC(CO)NC(=O)c1cc(-c2ccc(Cl)cc2)nn(-c2cnn(C)c2)c1=O | > 1000 | > 1000 | > 1000 | > 1000 | > 1000 | 101 | 79.3 | 72.2 | 61.1 | 97.9 | 78.6 | 66.3 | 68.5 | 101 | 90.8 | 77.4 | 71 | 98 | 82.4 | 80 | viability, T/C [31]: 104%; viability, T/C [32]: 109%; viability, T/C [33]: 105%; viability, T/C [34]: 98.9%; viability, T/C [35]: 108%; viability, T/C [36]: 104%; viability, T/C [37]: 111%; viability, T/C [38]: 102%; viability, T/C [22]: 66.5%; viability, T/C [39]: 103%; viability, T/C [40]: 98.5%; viability, T/C [25]: 107%; viability, T/C [26]: 89.4%; viability, T/C [27]: 74.2%; viability, T/C [28]: 79.8%
COc1ccc([C@@H](O)c2cc(-c3ncnc4cc(N5CCOCC5)ccc34)c(F)cc2Cl)nn1 + CC(CO)NC(=O)c1cc(-c2ccc(Cl)cc2)nn(-c2cnn(C)c2)c1=O | > 10000 | > 10000 | > 10000 | > 10000 | > 10000 | 102 | 91.2 | 94.5 | 80.3 | 109 | 100 | 94.9 | 83.3 | 107 | 106 | 102 | 89.3 | 108 | 113 | 114 | viability, T/C [5]: 75.6%; viability, T/C [6]: 82.4%; viability, T/C [11]: 80.2%; viability, T/C [12]: 75.8%; viability, T/C [17]: 77%; viability, T/C [18]: 72.8%; viability, T/C [22]: 96.1%; viability, T/C [23]: 84.1%; viability, T/C [24]: 78.7%; viability, T/C [25]: 115%; viability, T/C [26]: 104%; viability, T/C [27]: 95.4%; viability, T/C [28]: 84.5%; viability, T/C [29]: 75.8%; viability, T/C [30]: 72.3%
COc1cccc2c1C(=O)c1c(O)c3c(c(O)c1C2=O)CC(O)(C(=O)CO)CC3OC1CC(N)C(O)C(C)O1 (stereo not given) + Cc1ccccc1N=Nc1ccc(NC(=O)c2ccnn2C)c(C)c1 | 665 | 662 | 668 | 646 | 875 | 113 | 102 | 79.4 | 36.2 | 101 | 100 | 76.8 | 36.7 | 99.5 | 105 | 78.5 | 35.9 | 91.5 | 93.8 | 76.6 | viability, T/C [5]: 3.08%; viability, T/C [6]: 7.85%; viability, T/C [11]: 1.54%; viability, T/C [12]: 5.07%; viability, T/C [17]: 2.43%; viability, T/C [18]: 8.49%; viability, T/C [22]: 34.7%; viability, T/C [23]: 2.43%; viability, T/C [24]: 13%; viability, T/C [25]: 97.2%; viability, T/C [26]: 92.2%; viability, T/C [27]: 90.7%; viability, T/C [28]: 44.3%; viability, T/C [29]: 2.3%; viability, T/C [30]: 12.7%
Nc1ncn(C2CC(O)C(CO)O2)c(=O)n1 (stereo not given) + Cc1ccccc1N=Nc1ccc(NC(=O)c2ccnn2C)c(C)c1 | > 1000 | > 1000 | > 1000 | > 1000 | > 1000 | 94.7 | 94.4 | 104 | 96.6 | 108 | 103 | 108 | 96.4 | 106 | 101 | 84.9 | 94.5 | 105 | 86.4 | 92.5 | viability, T/C [31]: 92.6%; viability, T/C [32]: 105%; viability, T/C [33]: 104%; viability, T/C [34]: 104%; viability, T/C [35]: 88.7%; viability, T/C [36]: 104%; viability, T/C [37]: 97%; viability, T/C [38]: 86.9%; viability, T/C [22]: 89.8%; viability, T/C [39]: 90%; viability, T/C [40]: 97.3%; viability, T/C [25]: 87.6%; viability, T/C [26]: 86.7%; viability, T/C [27]: 78.7%; viability, T/C [28]: 83%
